According to patent publication US20230257429A1, “PEPTIDE ADJUVANT FOR ITS THERAPEUTIC APPLICATIONS IN VIRAL AND TUMOUR VACCINE DEVELOPMENT AND CANCER IMMUNOTHERAPY AND AUTOIMMUNE DISEASE DIAGNOSIS AND TREATMENTS” (National University of Singapore, priority 2020, published 2023):
Entries after “also recorded” stand apart in the source; their conditions may differ. Blank lines part the entries; values can stand above or below the molecule they belong to.

Key:
[1] = tested on: PBMC; experiment: Peptide binding to and penetration of PBMC, flow cytometry; type: cell-based, human; details: for CPP activity compared with NCL-P2 / CPP activity compared with P2+G: PBMC; for CPP activity compared with NCL-P2: peptide 200 μg/ml; for CPP activity compared with NCL-P2 / intracellular pool / cell penetration (CPP activity) in PBMC: 1 hr at 4° C.; for intracellular pool / cell penetration (CPP activity) in PBMC: fixed/permeabilized, streptavidin-AF488; for CPP activity compared with P2+G: 1 hr at 4° C. and 37° C., MFI
Protocol: PBMC re-suspended in 100 μl macrophage serum free media (3×10^6/ml) were incubated with different peptides (200 μg/ml). PBMC (100 μl) were incubated with the peptides for 1 hr at 37° C. or 4° C. Cells were washed twice in 2% FBS/PBS and incubated with streptavidin-AF488 and Zombie (NIR) Fixable viability stain-APC-Cy7 for 30 min at 4° C. Cells were then fixed with 1% PFA for 30 min at room temperature and analysed using the Fortessa analyser (BD). In some experiments, PBMC were, after incubation with peptides, incubated with Zombie (NIR) Fixable viability stain (APC-Cy7) for 30 min at 4° C. Cells were then fixed and permeabilized with BD CYTOFIX/CYTOPERM™ Kit for 20 min at 4° C., and then incubated with streptavidin-AF488 for 30 min at 4° C. In some experiments, PBMC were, after incubation with the peptides, stained with fluorescent mouse antibodies specific for monocytes (CD14/BV711), T cells (CD3/PerCP-Cy5-5) and B cells (CD19/Pacific blue). Cells were then stained with Zombie (NIR) Fixable viability stain-APC-Cy7 and streptavin-AF488, with or without membrane permeabilization. In these experiments, monocytes, T cells and B cells were separately gated to detect surface peptide binding and intracellular peptide penetration.

[2] = tested on: PBMC; experiment: PBMC activation, TNFα and IL-1β ELISA; type: cell-based, human; details: for adjuvant (alarmin) activity compared with NCL-P2+G / adjuvant (alarmin) activity compared with NCL-P2: PBMC stimulated 24 hr; for adjuvant (alarmin) activity compared with NCL-P2+G: TNFα by ELISA; for adjuvant (alarmin) activity compared with NCL-P2: TNFα in media; for TNFα induction from PBMC by known CPPs / TNFα production from PBMC: 24 hr; for TNFα induction from PBMC by known CPPs: ELISA; for TNFα production from PBMC: recombinant protein coated on plates
Protocol: (§1) Buffy coat fractions were obtained from healthy blood donors at the Singapore Health Sciences Authority, with Institutional ethics approval, and PBMC were isolated using Ficoll-Paque (GE Healthcare). To isolate monocytes, PBMC were re-suspended to 1×10^7 cells/ml in the RPMI medium contained 5% (v/v) BCS and incubated for 1 hr in T75 flasks (20 ml/flask). Monocytes that adhered were harvested. To culture macrophages and DC [Cao, W., et al., Blood 107: 2777-2785, (2006), incorporated herein by reference], monocytes were resuspended to 1×10^6 cells/ml and cultured in 6-well plates (2 ml/well). Macrophages were cultured by adding M-CSF to 20 ng/ml and DC were cultured with 20 ng/ml GM-CSF and 40 ng/ml IL-4. M-CSF, GM-CSF and IL-4 were obtained from R&D Systems (Mineapolis, Minn.). Cells were cultured for 6 days with half of the media being replenished every two days.
Purified proteins in PBS (30 μg/ml) were coated in triplicates in 96-well plates (50 μl/well) for 12 hr and PBMC (3×10^6 cells/ml), monocytes (1×10^6 cells/ml), macrophages (0.5×10^6 cells/ml) or DC (0.5×10^6 cells/ml) were re-suspended in macrophage serum-free medium containing penicillin and streptomycin and cultured for 24 hr in these plates at 100 μl/well. Where TLR ligands were used to stimulate these cells, they were added to the media: LPS (500 ng/ml for DC and macrophages and 10 ng/ml for PMBC and monocytes, InvivoGen), flagellin (1 μg/ml, InvivoGen), lipoteichic acid (LTA, 10 μg/ml). Cell activation was determined by measuring TNFα and IL-1β in the culture media using ELISA kits (Invitrogen).

[3] = molecular target: TLR2 (Homo sapiens, UniProt O60603); experiment: TLR2 binding assay (ELISA plate); design: purchased R&D Systems; details: for TLR2 binding at the highest concentration tested: peptide 200 μg/ml; for soluble protein binding to coated TLR2: TLR2 coated 2 μg/ml, protein 0-20 μg/ml, anti-HA detection
Chain of TLR2 (O60603 21-590 limits assumed): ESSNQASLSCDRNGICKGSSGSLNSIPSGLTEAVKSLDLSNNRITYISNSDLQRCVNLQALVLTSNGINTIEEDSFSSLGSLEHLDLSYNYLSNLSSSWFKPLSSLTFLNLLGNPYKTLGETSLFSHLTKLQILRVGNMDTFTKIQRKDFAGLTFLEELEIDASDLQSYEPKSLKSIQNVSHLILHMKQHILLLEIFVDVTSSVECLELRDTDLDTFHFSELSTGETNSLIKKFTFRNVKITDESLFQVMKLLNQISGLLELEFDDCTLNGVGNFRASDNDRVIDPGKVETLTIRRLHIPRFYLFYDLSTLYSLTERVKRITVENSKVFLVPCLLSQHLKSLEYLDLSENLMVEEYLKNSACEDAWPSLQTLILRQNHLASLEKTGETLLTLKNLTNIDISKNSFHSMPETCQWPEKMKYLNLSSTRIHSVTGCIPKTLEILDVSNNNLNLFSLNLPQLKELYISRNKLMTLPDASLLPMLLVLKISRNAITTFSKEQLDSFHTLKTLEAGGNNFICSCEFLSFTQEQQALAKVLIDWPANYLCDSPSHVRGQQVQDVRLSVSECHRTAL

[4] = tested on: monocytes; experiment: Monocyte activation, TNFα and IL-1β ELISA; type: cell-based, human; details: protein coated on plates, 24 hr, ELISA
Protocol: as §1
[…] Where TLR ligands were used to stimulate these cells, they were added to the media: LPS (500 ng/ml for DC and macrophages and 10 ng/ml for PMBC and monocytes, InvivoGen), flagellin (1 μg/ml, InvivoGen), lipoteichic acid (LTA, 10 μg/ml). Cell activation was determined by measuring TNFα and IL-1β in the culture media using ELISA kits (Invitrogen).

Molecule: GGFGGRGGGRGGRGGFGGRGGRGGFGGRGGFGGRGGRGG (NCL-P2+3G)
CPP activity compared with NCL-P2 [1]: slightly higher CPP activity
CPP activity compared with NCL-P2 ([1]; listed as P2+3G): slightly increased their CPP activities
adjuvant (alarmin) activity compared with NCL-P2+G [2]: no further improvement in adjuvant activity and instead it slightly reduced the high adjuvant activity
adjuvant (alarmin) activity compared with NCL-P2 [2]: significantly higher alarmin activity

Molecule: GGFGGKGGGKGGKGGFGGKGKGGFGGKGGFKGGKGG (NCL-P2R/K)
CPP activity compared with NCL-P2 [1]: lost CPP as well as alarmin activity
PBMC penetration at 37° C. or 4° C. ([1]; compared with NCL-P2): no longer penetrates PBMC
adjuvant (alarmin) activity compared with NCL-P2 [2]: lost CPP as well as alarmin activity
adjuvant (alarmin) activity compared with NCL-P2 ([2]; listed as R/K mutant of NCL-P2): lost its adjuvant activity
adjuvant (alarmin) activity compared with NCL-P2 ([2]; listed as SEQ ID NO: 20): completely abolished its adjuvant activity

Molecule: GWTLNSAGYLLGKINLKALAALAKKIL [CPP6, reference compound]
TNFα induction from PBMC by known CPPs [2]: No significant TNFα

Molecule: NCL-P4: peptide representing the N-terminal half of NCL-P6 (RGGFGGRGGG; NCL-P4)
TLR2 binding at the highest concentration tested [3]: no TLR2 binding
intracellular pool / cell penetration (CPP activity) in PBMC [1]: all lacked cell penetration

soluble protein binding to coated TLR2 [3]: not observed
Molecule: NCL(522)-HA: NCL-HA C-terminal deletion mutant of 522 residues which lacks the GAR/RGG region

soluble protein binding to coated TLR2 [3]: not observed
His-tagged TLR2 binding to coated protein ([3]; protein coated 10 μg/ml, TLR2 0.375-6.0 μg/ml): no binding
Molecule: NCL(649)-HA: NCL-HA C-terminal deletion mutant which lacks the GAR/RGG region

Molecule: MVTVLFRRLRIRRACGPPRVRV (CPP7) [reference compound]
TNFα induction from PBMC by known CPPs [2]: No significant TNFα

TLR2 binding to coated NCL-HA mutants (summary experiment) ([3]; protein coated 10 μg/ml, TLR2 2 μg/ml): weak binding
Molecule: NCL(670)-HA: NCL-HA C-terminal deletion mutant of 670 residues with a residual GAR/RGG region
TNFα and IL-1β production from monocytes [4]: no longer stimulates monocytes; also recorded: apparently insufficient

Molecule: GGRGGRGGGRGGRGGRGGRGRGGRGGRGGRRGGRGG (NCL-P2F/R)
increase in CPP activity compared with NCL-P2 [1]: approx. 8 fold
CPP activity compared with NCL-P2 [1]: gained substantial CPP activity; also recorded: have cell-penetrating activity
CPP activity compared with NCL-P2 ([1]; listed as P2F/R): strong CPP
adjuvant (alarmin) activity compared with NCL-P2 [2]: losing significant alarmin activity; also recorded: no significant alarmin activity
adjuvant (alarmin) activity compared with NCL-P2 ([2]; listed as P2F/R): reduced alarmin activity; also recorded: diminished alarmin activities
adjuvant (alarmin) activity compared with NCL-P2 ([2]; listed as SEQ ID NO: 21): substantially reduced its adjuvant activity

Molecule: RRRRNRTRRNRRRVRRRRRNRTRRNRRRVR (2xCPP4) [2×CPP4, reference compound]
alarmin activity compared with CPP4 ([2]; PBMC 24 hr, TNFα ELISA): Little increase in alarmin activity

Molecule: GGFGGRGGRGGFGGRGGRGGFGGRGGRGGFGGRGGRGG (NCL-P2+2G)
adjuvant (alarmin) activity compared with NCL-P2 [2]: diminished rather than increased adjuvant activity; also recorded: slightly reduced alarmin activity

Molecule: GGLGGRGGGRGGRGGLGGRGGRGGLGGRGGLRGGRGG (GGLGRRGGGRGGRGGLGGRGGRGGLGGRGGLRGGRGG; NCL-P2+G(F/L))
CPP activity compared with P2+G [1]: acquired higher CPP activities
CPP activity compared with NCL-P2 [1]: slightly increased their CPP activities
adjuvant (alarmin) activity compared with NCL-P2+G [2]: stronger alarmin activity than P2+G; also recorded: retained the alarmin activity

Molecule: GGYGGRGGGRGGRGGYGGRGRGGYGGRGGYRGGRGG (NCL-P2F/Y)
CPP activity compared with NCL-P2 [1]: gained significant CPP activity; also recorded: have cell-penetrating activity
adjuvant (alarmin) activity compared with NCL-P2 [2]: alarmin activity was diminished; also recorded: no significant alarmin activity
adjuvant (alarmin) activity compared with NCL-P2 ([2]; listed as SEQ ID NO: 23): markedly diminished its adjuvant activity

Molecule: GGFGPRGGPRGPRGGFGPRGPRGGFGPRGGFRGPRGP (NCL-P2+G(G/P))
CPP activity compared with P2+G [1]: completely lost the CPP activity
adjuvant (alarmin) activity compared with NCL-P2+G [2]: lost the alarmin activity

Molecule: NCL-P5: peptide representing the C-terminal half of NCL-P6 (RGGRGGFGGRG; NCL-P5)
TLR2 binding at the highest concentration tested [3]: low level of TLR2 binding
intracellular pool / cell penetration (CPP activity) in PBMC [1]: all lacked cell penetration

Molecule: NCL-P7: short peptide corresponding to the non-repetitive C-terminal end of the 48-residue GAR/RGG region (FRGGRGG; NCL-P7)
intracellular pool / cell penetration (CPP activity) in PBMC [1]: all lacked cell penetration

Molecule: GGFGARGGARGARGGFGARGARGGFGARGGFRGARGA (NCL-P2+G(G/A))
CPP activity compared with P2+G [1]: completely lost the CPP activity
adjuvant (alarmin) activity compared with NCL-P2+G [2]: lost the alarmin activity

Molecule: GGWGGRGGGRGGRGGWGGRGRGGWGGRGGWRGGRGG (NCL-P2F/W)
CPP activity compared with NCL-P2 [1]: retained the CPP activity; also recorded: have cell-penetrating activity
adjuvant (alarmin) activity compared with NCL-P2 [2]: lost the alarmin activity; also recorded: no significant alarmin activity
adjuvant (alarmin) activity compared with NCL-P2 ([2]; listed as SEQ ID NO: 24): markedly diminished its adjuvant activity

Molecule: GGIGGRGGGRGGRGGIGGRGGRGGIGGRGGIRGGRGG (NCL-P2+G(F/I))
CPP activity compared with P2+G [1]: acquired higher CPP activities
CPP activity compared with NCL-P2 [1]: slightly increased their CPP activities
adjuvant (alarmin) activity compared with NCL-P2+G [2]: retained the alarmin activity

B1: GAR1-HA: recombinant GAR1 with a C-terminal HA tag (protein, UniProt Q9NY12 1-217, looked up)
H/ACA ribonucleoprotein …: MSFRGGGRGGFNRGGGGGGFNRGGSSNHFRGGGGGGGGGNFRGGGRGGFGRGGGRGGFNKGQDQGPPERVVLLGEFLHPCEDDIVCKCTTDENKVPYFNAPVYLENKEQIGKVDEIFGQLRDFYFSVKLSENMKASSFKKLQKFYIDPYKLLPLQRFLPRPPGEKGPPRGGGRGGRGGGRGGGGRGGGRGGGFRGGRGGGGGGFRGGRGGGFRGRGH
modifications: C-terminal HA tag
TNFα production from PBMC [2]: indeed activated PBMC

B2: FBRL: recombinant fibrillarin with C-terminal HA tag (protein)
chain: MKPGFSPRGGGFGGRGGFGDRGGRGGRGGFGGGRGRGGGFRGRGRGGGGGGGGGGGGGRGGGGFHSGGNRGRGRGGKRGNQSGKNVMVEPHRHEGVFICRGKEDALVTKNLVPGESVYGEKRVSISEGDDKIEYRAWNPFRSKLAAAILGGVDQIHIKPGAKVLYLGAASGTTVSHVSDIVGPDGLVYAVEFSHRSGRDLINLAKKRTNIIPVIEDARHPHKYRMLIAMVDVIFADVAQPDQTRIVALNAHTFLRNGGHFVISIKANCIDSTASAEAVFASEVKKMQQENMKPQEQLTLEPYERDHAVVVGVYRPPPKVKN
modifications: C-terminal HA tag; FBRL
TNFα production from PBMC [2]: strongly induced TNFα production
